Measurements reported in patent US8455397B2, “Penoxsulam as a turfgrass, vineyard and orchard floor herbicide” (Dow AgroSciences, LLC, priority 2005, dated 2013).

What was measured:
little mallow (MALPA) = test: Pre-emergence orchard floor weeds, greenhouse study; format: in vivo, Malva parviflora; conditions: 28 Days After Application
Procedure: Greenhouse studies were conducted by seeding species in a loam soil and applying the herbicides to the soil surface using a Cornwall 5 milliliter glass syringe fitted with a TeeJet TN-3 nozzle on an area basis Immediately following herbicide application the pots were irrigated over the top to move the herbicides into the seeding zone. Pots were kept well irrigated throughout the trial. A percent visual weed control assessment was taken 4 weeks after application. Control was determined visually by comparing treated and untreated pots and scored on a 0 to 100 percent scale where 0 corresponds to no control and 100 corresponds to complete kill, or no emergence.

white clover (TRFRE) [1] = test: Granule carrier/particle size, postemergent field study; format: in vivo, Trifolium repens L.
Procedure: (§1) Greenhouse and field studies evaluated the effect of two granule carriers and two particles sizes on the postemergent broadleaf activity of penoxsulam. The two carriers were a 46-0-0 and 28-4-12 fertilizer blend and the particle sizes averaged 0.75 mm and 2.15 mm.
(§2) Field studies were conducted in established turfgrass sites containing a natural population of target broadleaf weeds. Replicated trials, containing a minimum of three replications and having individual plots ranging in size from 25 to 50 ft. sq (2.3 to 4.6 square meters), were initiated in the late spring when turf and weeds were actively growing. Granule treatments were uniformly applied to individual plots using a common hand-shaker method. Applications were made in the early morning when dew was present. Natural rainfall and supplemental irrigation were used to maintain healthy turf and active weed growth throughout the study period. Control of each weed species in the study site was made at 2, 4 and 8 weeks after treatment. Control was determined visually by comparing treated and untreated weeds and scored on a 0 to 100 percent scale where 0 corresponds to no control and 100 corresponds to complete kill.

white clover (TRFRE) [2] = test: Granule carrier/particle size, post emergence greenhouse study; format: in vivo, Trifolium repens L.; conditions: postemergent greenhouse
Procedure: as §1
(§3) Greenhouse studies were applied both post and pre-emergence to broadleaf weeds and sedge reared from seed or nutlet in 12.7″ (32.25 cm) by 8.8″ (22.35 cm) flats of a loam soil. Particle size and carrier were evaluated post emergence, carrier comparisons with the smaller particle size of 0.75 was evaluated pre-emergence. Stage of growth of species at post emergence application: PLAMA and TAROF in the 3 to 5 leaf stage, TRFRE in the 3rd tri-foliate stage and CYPES in the 3 to 4 leaf stage. Post emergence trial design was a replicated block, one species per flat, 3 replicate flats per treatment. Granule treatments were uniformly applied to individual flats on an area basis using a common hand-shaker method. Post emergence applications were made to the flat covering both soil and misted foliage. Trial was sub-irrigated daily, and watered over the top 1 time per week starting 7 days after application to simulate a natural rainfall event. Active weed growth was maintained throughout the study period. Weed control of each species in the post emergence study was assessed at 2, 3 and 4 weeks after treatment. Pre-emergence trial design was 2 species per flat, 4 replicate flats, block design. Pre-emergence applications were made to the soil surface using a common hand shaker method on an area basis. Overhead irrigation was maintained throughout the trial. Weed control of each species in the pre-emergence study was assessed at 2, 3, 4 and 5 weeks after application. Control was determined visually by comparing treated and untreated flats and scored on a 0 to 100 percent scale where 0 corresponds to no control and 100 corresponds to complete kill.

yellow nutsedge (CYPES) = test: as above; format: in vivo, Cypres esculentus L.; conditions: postemergent greenhouse
Procedure: as §1, §3

[3] = test system: broadleaf plantain (PLAMA); test: Postemergent granule herbicides, turfgrass field studies; format: in vivo, Plantago major L.; conditions: Table I, 2 sites, Penoxsulam 140 gai/Ha, Scotts Plus 2 1682+841 gae/Ha, Trimec 1121+516+112 gae/Ha
Procedure: as §2

[4] = test system: Cyperus esculentus (CYPES); test: Post emergence synergy greenhouse study, penoxsulam + commercial turf granules; format: in vivo; conditions: 27 Days After Application
Procedure: Post emergence greenhouse studies were conducted by applying a 0.14% w/w (weight for weight) penoxsulam loaded urea granule alone and in combination with commercial turf granules. The loading for the commercial granules is listed below Table XI. Greenhouse studies were applied on a kilogram of product per hectare basis (KG PR/Ha) post emergence to broadleaf weeds and sedge reared from seed or nutlet in 12.7″ (32.25 cm) by 8.8″ (22.35 cm) flats of a loam soil. Trial design was replicated block, one species per flat, 4 replicate flats per treatment. Post emergence applications were made to the flat covering both soil and misted foliage using a common hand-shaker method distributing the samples uniformly over the flat. Trial was sub-irrigated daily, and watered over the top 1 time per week starting 7 days after application to simulate a natural rainfall event. Active weed growth was maintained throughout the study period. Weed control was assessed at 2, 3 and 4 weeks after treatment. Control was determined visually by comparing treated and untreated flats and scored on a 0 to 100 percent scale where 0 corresponds to no control and 100 corresponds to complete kill.

turfgrass = conditions: in vivo
white clover (TRFRE) [5] = test: Postemergent granule herbicides, turfgrass field studies; format: in vivo, Trifolium repens L.
Procedure: as §2

[6] = carrier 28-4-12, particle size 0.75 mm, 11.2 gai/Ha
[7] = carrier 28-4-12, particle size 0.75 mm, 22.4 gai/Ha
[8] = carrier 28-4-12, particle size 2.15 mm, 11.2 gai/Ha
[9] = carrier 28-4-12, particle size 2.15 mm, 22.4 gai/Ha
[10] = carrier 46-0-0, particle size 0.75 mm, 11.2 gai/Ha
[11] = carrier 46-0-0, particle size 0.75 mm, 22.4 gai/Ha
[12] = carrier 46-0-0, particle size 2.15 mm, 11.2 gai/Ha
[13] = carrier 46-0-0, particle size 2.15 mm, 22.4 gai/Ha
[14] = carrier 28-4-12, particle size 0.75 mm, 5.6 gai/Ha
[15] = carrier 28-4-12, particle size 2.15 mm, 5.6 gai/Ha
[16] = carrier 46-0-0, particle size 0.75 mm, 5.6 gai/Ha
[17] = carrier 46-0-0, particle size 2.15 mm, 5.6 gai/Ha

## COc1cnc(OC)n2nc(NS(=O)(=O)c3c(OCC(F)F)cccc3C(F)(F)F)nc12 [Penoxsulam, 2-(2,2-difluoroethoxy)-N-(5,8-dimethoxy[1,2,4]triazolo[1,5-c]-pyrimidin-2-yl)-6-(trifluoromethyl)benzenesulfonamide]
Little mallow (MALPA); 8.8 gai/Ha
  Pre-emergent Percent Mean Control: 74%
Little mallow (MALPA); 17.5 gai/Ha
  Pre-emergent Percent Mean Control: 87%
Little mallow (MALPA); 35 gai/Ha
  Pre-emergent Percent Mean Control: 93%
Little mallow (MALPA); 70 gai/Ha
  Pre-emergent Percent Mean Control: 100%
White clover (TRFRE) [1]; [6]
  Percent Weed Control 26-27 DAA: 80%
White clover (TRFRE) [1]; [7]
  Percent Weed Control 26-27 DAA: 97%
White clover (TRFRE) [1]; [8]
  Percent Weed Control 26-27 DAA: 48%
White clover (TRFRE) [1]; [9]
  Percent Weed Control 26-27 DAA: 70%
White clover (TRFRE) [1]; [10]
  Percent Weed Control 26-27 DAA: 82%
White clover (TRFRE) [1]; [11]
  Percent Weed Control 26-27 DAA: 95%
White clover (TRFRE) [1]; [12]
  Percent Weed Control 26-27 DAA: 34%
White clover (TRFRE) [1]; [13]
  Percent Weed Control 26-27 DAA: 78%
White clover (TRFRE) [2]; [14]
  Percent Weed Control 27-30 DAA: 40%
White clover (TRFRE) [2]; [6]
  Percent Weed Control 27-30 DAA: 57%
White clover (TRFRE) [2]; [7]
  Percent Weed Control 27-30 DAA: 68%
White clover (TRFRE) [2]; [15]
  Percent Weed Control 27-30 DAA: 12%
White clover (TRFRE) [2]; [8]
  Percent Weed Control 27-30 DAA: 38%
White clover (TRFRE) [2]; [9]
  Percent Weed Control 27-30 DAA: 58%
White clover (TRFRE) [2]; [16]
  Percent Weed Control 27-30 DAA: 22%
White clover (TRFRE) [2]; [10]
  Percent Weed Control 27-30 DAA: 58%
White clover (TRFRE) [2]; [11]
  Percent Weed Control 27-30 DAA: 72%
White clover (TRFRE) [2]; [17]
  Percent Weed Control 27-30 DAA: 5%
White clover (TRFRE) [2]; [12]
  Percent Weed Control 27-30 DAA: 33%
White clover (TRFRE) [2]; [13]
  Percent Weed Control 27-30 DAA: 37%
Yellow nutsedge (CYPES); [14]
  Percent Weed Control 27-30 DAA: 18%
Yellow nutsedge (CYPES); [6]
  Percent Weed Control 27-30 DAA: 37%
Yellow nutsedge (CYPES); [7]
  Percent Weed Control 27-30 DAA: 60%
Yellow nutsedge (CYPES); [15]
  Percent Weed Control 27-30 DAA: 37%
Yellow nutsedge (CYPES); [8]
  Percent Weed Control 27-30 DAA: 25%
Yellow nutsedge (CYPES); [9]
  Percent Weed Control 27-30 DAA: 35%
Yellow nutsedge (CYPES); [16]
  Percent Weed Control 27-30 DAA: 18%
Yellow nutsedge (CYPES); [10]
  Percent Weed Control 27-30 DAA: 30%
Yellow nutsedge (CYPES); [11]
  Percent Weed Control 27-30 DAA: 65%
Yellow nutsedge (CYPES); [17]
  Percent Weed Control 27-30 DAA: 3%
Yellow nutsedge (CYPES); [12]
  Percent Weed Control 27-30 DAA: 20%
Yellow nutsedge (CYPES); [13]
  Percent Weed Control 27-30 DAA: 42%
[3]; 4 Weeks After Treatment
  Mean Percent Weed Control: 81%
[3]; 8 Weeks After Treatment
  Mean Percent Weed Control: 87%
[4]; 2.4 kg Product/Ha of 0.14% w/w urea granule
  % Control Component A: 16%
[4]; 8.0 kg Product/Ha of 0.14% w/w urea granule
  % Control Component A: 44%
turfgrass
  damage to mature, well-established turfgrass: acceptable or no damage
White clover (TRFRE) [5]; Table I, 4 Weeks After Treatment, 8 sites, Penoxsulam 140 gai/Ha, Scotts Plus 2 1682+841 gae/Ha, Trimec 1121+516+112 gae/Ha
  Mean Percent Weed Control: 93%
White clover (TRFRE) [5]; Table I, 8 Weeks After Treatment, 7 sites, Penoxsulam 140 gai/Ha, Scotts Plus 2 1682+841 gae/Ha, Trimec 1121+516+112 gae/Ha
  Mean Percent Weed Control: 94%
White clover (TRFRE) [5]; Table III, 4 Weeks After Treatment, 22.4 gai/Ha, 8 sites
  Mean Percent Weed Control: 85%
White clover (TRFRE) [5]; Table III, 4 Weeks After Treatment, 44.9 gai/Ha, 8 sites
  Mean Percent Weed Control: 94%
White clover (TRFRE) [5]; Table III, 4 Weeks After Treatment, 67.3 gai/Ha, 8 sites
  Mean Percent Weed Control: 96%
White clover (TRFRE) [5]; Table III, 4 Weeks After Treatment, 100 gai/Ha, 8 sites
  Mean Percent Weed Control: 96%
White clover (TRFRE) [5]; Table III, 8 Weeks After Treatment, 22.4 gai/Ha, 8 sites
  Mean Percent Weed Control: 74%
White clover (TRFRE) [5]; Table III, 8 Weeks After Treatment, 44.9 gai/Ha, 8 sites
  Mean Percent Weed Control: 88%
White clover (TRFRE) [5]; Table III, 8 Weeks After Treatment, 67.3 gai/Ha, 8 sites
  Mean Percent Weed Control: 91%
White clover (TRFRE) [5]; Table III, 8 Weeks After Treatment, 100 gai/Ha, 8 sites
  Mean Percent Weed Control: 97%
